The source of these data is PubChem BioAssay AID200 (DTP/NCI, 2004).

SMILES strings stand for the structures. “And” between values parts separate entries of the source, which are not always exact repeats. Equal values may be shown once. Inconclusive results and toxic doses are left out. *1 amine or outer side, *2 acyl side, *3 side chain or, on linkers, in order; H or OH if unused. Where a SMILES comes first, the peptide text is derived from it. Bridges are numbered along the chain shown (N, C = ends). Roman numbers before positions name the chains, in order. [ ]: non-standard residue; d: D form. Actinocin(9to1) = Cc1c2oc3c(C)ccc(C(=O)[*:1])c3nc-2c(C(=O)[*:2])c(N)c1=O; aThr = C[C@H](O)[C@H](N)C(=O)O; NMeV = CN[C@H](C(=O)O)C(C)C; Sar = CNCC(=O)O

This experiment relates to B6C3F1 mice, B16 melanoma ip, median survival T/C. Kind of experiment: NCI In Vivo Anticancer Drug Screen. Data for tumor model B16 Melanoma (intraperitoneal) in B6C3F1 mice. As to conditions: endpoint: median survival time, schedule: Q01DX009 (ip), higher = longer survival. An outline of the steps:
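Values are T/C ratios: the measurement in treated animals divided by that in vehicle-treated controls, using survival or tumor size in mice carrying transplantable tumors.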

The mark [1] stands for this setting: dose: 25.0 mg/kg/injection, vehicle: Klucel (hydroxypropylcellulose) (HPC).
Where [2] appears, read: dose: 50.0 mg/kg/injection, vehicle: Klucel (hydroxypropylcellulose) (HPC).
Where [3] appears, read: dose: 12.5 mg/kg/injection, vehicle: saline with Tween-80.
[4] abbreviates: dose: 25.0 mg/kg/injection, vehicle: saline with Tween-80.
Where [5] appears, read: dose: 50.0 mg/kg/injection, vehicle: saline with Tween-80.
Where [6] appears, read: dose: 100.0 mg/kg/injection, vehicle: saline with Tween-80.
[7] abbreviates: dose: 200.0 mg/kg/injection, vehicle: saline with Tween-80.
[8] abbreviates: dose: 6.25 mg/kg/injection, vehicle: saline with Tween-80.
The mark [9] stands for this setting: dose: 0.25 mg/kg/injection, vehicle: saline + alcohol.
Where [10] appears, read: dose: 0.5 mg/kg/injection, vehicle: saline + alcohol.
The mark [11] stands for this setting: dose: 1.0 mg/kg/injection, vehicle: saline + alcohol.

As for `CCCCOc1ccc(C(=O)SCCCN=C(N)N)cc1`, the T/C is 92 % of control (dose: 3.12 mg/kg/injection, vehicle: suspension in saline); 97 % of control (dose: 6.25 mg/kg/injection, vehicle: suspension in saline); 87 % of control (dose: 25.0 mg/kg/injection, vehicle: suspension in saline).

In the case of `O=C(NC(Cc1ccc(I)cc1)C(=O)O)c1cccc(Br)c1` (stereo not drawn), the T/C runs as follows: under setting [1], 100 % of control; under setting [2], 104 % of control; (dose: 100.0 mg/kg/injection, vehicle: Klucel (hydroxypropylcellulose) (HPC)) 105 % of control; (dose: 200.0 mg/kg/injection, vehicle: Klucel (hydroxypropylcellulose) (HPC)) 103 % of control; (dose: 400.0 mg/kg/injection, vehicle: Klucel (hydroxypropylcellulose) (HPC)) 89 % of control.

As for `CC(=O)OCC1(C)NC(=O)c2ccccc2O1` (stereo not drawn), the T/C is 88 % of control and 103 % of control under setting [3]; 114 % of control and 103 % of control under setting [4]; 95 % of control and 100 % of control under setting [5]; 92 % of control and 93 % of control under setting [6]; 90 % of control under setting [7]; 86 % of control (dose: 400.0 mg/kg/injection, vehicle: saline with Tween-80).

Consider `COc1nc(C(Cl)(Cl)Cl)c(Cl)c(OC)c1Cl`, for which the T/C was 96 % of control under setting [1] and 104 % of control under setting [2].

On to `Cc1c2oc3c(C)ccc(C(=O)N[C@@H]4C(=O)N[C@H](C(C)C)C(=O)N5CCC[C@H]5C(=O)N(C)CC(=O)N(C)[C@@H](C(C)C)C(=O)O[C@H]4C)c3nc-2c(C(=O)N[C@@H]2C(=O)N[C@H](C(C)C)C(=O)N3CCC[C@H]3C(=O)N(C)CC(=O)N(C)[C@@H](C(C)C)C(=O)O[C@H]2C)c(N)c1=O` (I: [aThr][dV]P[Sar][NMeV] / II: [aThr][dV]P[Sar][NMeV]; ester I:1-I:C, II:1-II:C; linker I:N-II:N via Actinocin(9to1)), for which the T/C is, setting by setting: (dose: 6.25 micrograms/kg/injection, vehicle: saline + alcohol) 118 % of control; (dose: 6.25 micrograms/kg/injection, vehicle: water) 117 % of control; (dose: 6.3 micrograms/kg/injection, vehicle: saline + alcohol) 108 % of control and 110 % of control; (dose: 12.5 micrograms/kg/injection, vehicle: saline + alcohol) 115 % of control; (dose: 25.0 micrograms/kg/injection, vehicle: water) 151 % of control; (dose: 50.0 micrograms/kg/injection, vehicle: saline + alcohol) 172 % of control. The T/C is 171 % of control (dose: 50.0 micrograms/kg/injection, vehicle: water); 160 % of control and 166 % of control (dose: 100.0 micrograms/kg/injection, vehicle: saline + alcohol); 181 % of control (dose: 100.0 micrograms/kg/injection, vehicle: water); 159 % of control and 174 % of control (dose: 200.0 micrograms/kg/injection, vehicle: saline + alcohol).

For the compound `CN(C(=S)S(=O)(=O)C12CC3CC(CC(C3)C1)C2)c1ccccc1`, the T/C was 104 % of control (dose: 1.56 mg/kg/injection, vehicle: Klucel (hydroxypropylcellulose) (HPC)); 98 % of control (dose: 3.12 mg/kg/injection, vehicle: Klucel (hydroxypropylcellulose) (HPC)); 104 % of control (dose: 6.25 mg/kg/injection, vehicle: Klucel (hydroxypropylcellulose) (HPC)); 101 % of control (dose: 12.5 mg/kg/injection, vehicle: Klucel (hydroxypropylcellulose) (HPC)); 114 % of control under setting [1]; 104 % of control under setting [2].

Consider `Cc1ccc2c(c1)N=C(Nc1ccccc1)N=S2(C)=O` (stereo not drawn), for which the T/C runs as follows: under setting [8], 101 % of control; under setting [3], 87 % of control; under setting [4], 102 % of control; under setting [5], 96 % of control; under setting [6], 87 % of control; under setting [7], 90 % of control.

On to `COC(=O)[C@@]12OC[C@]34[C@H]([C@@H](O)[C@@H]1O)[C@@]1(C)CC(=O)C(O)=C(C)[C@@H]1C[C@H]3OC(=O)[C@H](OC(=O)/C=C(/C)C(C)(C)O)[C@@H]24`, for which the T/C was 104 % of control under setting [9]; 110 % of control and 117 % of control under setting [10]; 119 % of control under setting [11].

As for `CCN(CC)Cc1cc2[nH]c3c4ccc(Cl)cc4ncc3c2cc1OC`, the T/C is, setting by setting: under setting [3], 91 % of control and 102 % of control; under setting [4], 112 % of control and 102 % of control; under setting [5], 98 % of control and 107 % of control.

In the case of `NC(=O)NC(CC(=O)O)C(=O)O` (stereo not drawn), the T/C is 113 % of control under setting [5], 95 % of control under setting [6] and 102 % of control under setting [7].

For `COC(=O)C12OCC34C(CC5C(C)C6=CC(=O)OC6=CC5(C)C3C(O)C1O)OC(=O)C(OC(C)=O)C24` (stereo not drawn), the T/C is, setting by setting: (dose: 0.12 mg/kg/injection, vehicle: saline + alcohol) 110 % of control; under setting [9], 109 % of control; under setting [10], 105 % of control; under setting [11], 103 % of control; (dose: 2.0 mg/kg/injection, vehicle: saline + alcohol) 109 % of control.

Turning to `CCCCNP1(NCCCC)=NP(NCCCC)(NCCCC)=NP(NCCCC)(NCCCC)=NP(NCCCC)(NCCCC)=N1`, the T/C by setting is: under setting [8], 111 % of control and 98 % of control; under setting [3], 115 % of control and 122 % of control and 101 % of control; under setting [4], 119 % of control and 104 % of control; under setting [5], 115 % of control.

As to `CN(C)CSCN(C)C`, the T/C was 97 % of control (dose: 1.56 mg/kg/injection, vehicle: saline with Tween-80); 89 % of control (dose: 3.13 mg/kg/injection, vehicle: saline with Tween-80); 101 % of control under setting [8].

Consider `Cc1c2ccccc2c(C)c2c1ccc1ccccc12`, for which the T/C reads like this: (dose: 1.0 mg/kg/injection, vehicle: saline with Tween-80) 99 % of control; (dose: 2.0 mg/kg/injection, vehicle: saline with Tween-80) 106 % of control; (dose: 4.0 mg/kg/injection, vehicle: saline with Tween-80) 122 % of control; (dose: 8.0 mg/kg/injection, vehicle: saline with Tween-80) 113 % of control; (dose: 16.0 mg/kg/injection, vehicle: saline with Tween-80) 86 % of control.

`N#CCc1c[nH]c2ccc([N+](=O)[O-])cc12`: the T/C by setting is: under setting [5], 102 % of control; under setting [6], 100 % of control; under setting [7], 108 % of control.

Regarding `Cc1cc2c(C(C)C)c(O)c(O)c(C=O)c2c(O)c1-c1c(C)cc2c(C(C)C)c(O)c(O)c(C=O)c2c1O`, the T/C (dose: 0.38 mg/kg/injection, vehicle: saline with Tween-80) was 97 % of control; the T/C (dose: 0.75 mg/kg/injection, vehicle: saline with Tween-80) was 100 % of control; the T/C (dose: 1.5 mg/kg/injection, vehicle: saline with Tween-80) is 98 % of control; the T/C (dose: 3.0 mg/kg/injection, vehicle: saline with Tween-80) was 106 % of control.

On to `NCCc1ccc(O)c(O)c1`, for which the T/C is 96 % of control (dose: 50.0 mg/kg/injection, vehicle: saline); 106 % of control [middle of 4 runs] (dose: 100.0 mg/kg/injection, vehicle: saline); 109 % of control [middle of 4 runs] (dose: 200.0 mg/kg/injection, vehicle: saline); 115 % of control [middle of 4 runs] (dose: 400.0 mg/kg/injection, vehicle: saline); 119 % of control (dose: 500.0 mg/kg/injection, vehicle: saline); 114 % of control and 112 % of control and 118 % of control (dose: 600.0 mg/kg/injection, vehicle: saline). Under “dose: 800.0 mg/kg/injection, vehicle: saline”, the T/C is 121 % of control.
